Results as given in the NIST ThermoML archive (doi:10.1021/acs.jced.6b00471).
Numbers after ± are expanded uncertainties.

Tests used:
[1] = refractive index (Na D-line) (dimensionless); conditions: 298.15 K; 101.33 kPa; Liquid; Standard Abbe refractometry
[2] = Liquid; for mass density: 298.15 K, 101.33 kPa, Pycnometric method; for Normal boiling temperature: Ebulliometric method (Recirculating still)

| refractive index [1] | mass density [2] | Normal boiling temperature [2] | Structure (SMILES) |
| --- | --- | --- | --- |
| 1.3872 ± 0.0007 | 863.8 ± 0.8 kg/m3 | 111.97 ± 0.2 °C | CCC(C)OC(C)=O (stereo not given) [1-methylpropyl ethanoate] |
| 1.3931 ± 0.0007 | 797.4 ± 0.7 kg/m3 | 107.68 ± 0.2 °C | CC(C)CO [2-methyl-1-propanol] |
| 1.3857 ± 0.0007 |  | 82.36 ± 0.2 °C | CC(C)(C)O [2-methylpropan-2-ol] |
| 1.397 ± 0.0007 | 805.8 ± 0.7 kg/m3 |  | CCCCO [butan-1-ol] |
